Results published in the NIST ThermoML archive (doi:10.1016/j.jct.2010.12.022).
Where “and” joins values, the source holds several entries; their conditions need not be identical. Equal values may be shown once.

Conditions: Crystal, Calculated from knudsen effusion weight loss

c1ccc(-c2cc(-c3ccccc3)cc(-c3ccccc3)c2)cc1 [1,3,5-triphenylbenzene]
Conditions	vapor or sublimation pressure
404.34 K	9.95e-05 kPa
405.34 K	0.0001076 kPa
407.27 K	0.000136 kPa
408.34 K	0.0001462 kPa
408.35 K	0.0001487 kPa
410.36 K	0.0001809 kPa
412.35 K	0.0002238 kPa and 0.0002202 kPa
413.28 K	0.000252 kPa
414.37 K	0.0002718 kPa
416.35 K	0.0003305 kPa
416.37 K	0.0003361 kPa
418.28 K	0.000412 kPa
418.39 K	0.000405 kPa
420.36 K	0.0004929 kPa
420.39 K	0.0005004 kPa
422.41 K	0.000601 kPa
423.28 K	0.000671 kPa
424.37 K	0.000729 kPa
424.42 K	0.0007385 kPa
426.43 K	0.0008947 kPa
428.29 K	0.001087 kPa
428.38 K	0.00108 kPa
428.45 K	0.001096 kPa

O=C1c2ccccc2-c2cccc3cccc1c23 [7H-benz[de]anthracen-7-one]
Conditions	vapor or sublimation pressure [kPa]
388.22 K	0.0001308
389.22 K	0.0001419
390.22 K	0.0001594
391.22 K	0.0001742
392.19 K	0.0001926
392.22 K	0.0001937
393.23 K	0.0002126
394.2 K	0.000232
394.23 K	0.0002331
395.24 K	0.0002574
396.2 K	0.0002786
396.23 K	0.0002797
397.24 K	0.0003067
398.2 K	0.0003364
398.23 K	0.0003376
399.24 K	0.0003702
400.21 K	0.0004108
400.24 K	0.000412
401.24 K	0.0004472
402.21 K	0.0004911
402.24 K	0.0004922
403.25 K	0.000532
404.21 K	0.0005813
406.21 K	0.0007014
408.22 K	0.0008383

c1ccc2cc3ccccc3cc2c1 [anthracene]
Conditions	vapor or sublimation pressure
323.31 K	2.21e-05 kPa
327.16 K	3.51e-05 kPa
331.27 K	5.47e-05 kPa
335.32 K	8.42e-05 kPa
339.31 K	0.00013 kPa
343.32 K	0.000197 kPa
347.26 K	0.000281 kPa
347.33 K	0.000289 kPa
351.27 K	0.00043 kPa
351.33 K	0.000426 kPa and 0.000424 kPa
355.26 K	0.000604 kPa
355.33 K	0.000634 kPa
357.34 K	0.000783 kPa
359.26 K	0.000876 kPa
359.33 K	0.000945 kPa
363.34 K	0.001374 kPa
367.27 K	0.001898 kPa
367.35 K	0.001967 kPa
371.35 K	0.002859 kPa
375.36 K	0.004145 kPa
